Test [1] is described as follows: Binding affinity to N,N'-Ac2-L-Lys-D-Ala-Gly model of cell wall ligand by UV-difference assay.
The nature of test [2]: Binding affinity to N,N'-Ac2-L-Lys-D-Ala-D-Ala model of cell wall ligand by UV-difference assay.
A short description of test [3]: Binding affinity to N,N'-Ac2-L-Lys-D-Ala-D-Ser model of cell wall ligand by UV-difference assay.
The next test concerns Staphylococcus aureus. The test can be described thus: Antimicrobial activity against vancomycin-sensitive Staphylococcus aureus ATCC 25923 after 24 hrs. It counts as functional. The conditions noted are these: ATCC 25923, 24 h.
The nature of test [4]: Binding affinity to N,N'-Ac2-L-Lys-D-Ala-D-Phe model of cell wall ligand by UV-difference assay.

Each structure is given as a SMILES string. In brackets after ≈: the same amount, converted by molar mass.

The term MIC denotes the smallest concentration in the dilution series that meets the test's criterion for growth inhibition. Low values mean a more susceptible organism, high ones a less susceptible organism. For `CN[C@H](CC(C)C)C(=O)N[C@H]1C(=O)N[C@@H](CC(N)=O)C(=O)N[C@H]2C(=O)N[C@H]3C(=O)N[C@H](C(=O)N[C@H](C(=O)O)c4cc(O)cc(O)c4-c4cc3ccc4O)[C@H](O)c3ccc(c(Cl)c3)Oc3cc2cc(c3O)Oc2ccc(cc2Cl)[C@H]1O` [VANCOMYCIN AGLYCON], the Ka in test [1] is 1 ×10⁴ /M; in test [2] it was 1.4 ×10⁵ /M; in test [3], 3.3 ×10³ /M; in test [4] it was 9.1 ×10² /M. The MIC against Staphylococcus aureus was 1.25 µg/mL (≈ 1.09 µM).
The corresponding values for `CN[C@H](CC(C)C)C(=O)N[C@H]1C(=O)N[C@@H](CC(N)=O)C(=O)N[C@H]2C(=O)N[C@H]3C(=O)N[C@H](C(=O)N[C@H](C(=O)O)c4cc(O)cc(O)c4-c4cc3ccc4O)[C@H](O)c3ccc(cc3)Oc3cc2cc(c3O)Oc2ccc(cc2Cl)[C@H]1O` are 0.49 ×10⁴ /M, 0.38 ×10⁵ /M, 4 ×10³ /M, 9 ×10² /M and 10 µg/mL (≈ 9.01 µM).
As to `CN[C@H](CC(C)C)C(=O)N[C@H]1C(=O)N[C@@H](CC(N)=O)C(=O)N[C@H]2C(=O)N[C@H]3C(=O)N[C@H](C(=O)N[C@H](C(=O)O)c4cc(O)cc(O)c4-c4cc3ccc4O)[C@H](O)c3ccc(cc3)Oc3cc2cc(c3O)Oc2ccc(cc2)[C@H]1O`, the Ka in test [2] amounted to 0.18 ×10⁵ /M. Moreover, the MIC in the test with Staphylococcus aureus is 20 µg/mL (≈ 18.6 µM).
In turn, `CN[C@H](CC(C)C)C(=O)N[C@H]1C(=O)N[C@@H](CC(N)=O)C(=O)N[C@H]2C(=O)N[C@H]3C(=O)N[C@H](C(=O)N[C@H](C(=O)O)c4cc(O)cc(O)c4-c4cc3ccc4O)[C@H](O)c3ccc(c(Cl)c3)Oc3cc2cc(c3O[C@@H]2O[C@H](CO)[C@@H](O)[C@H](O)[C@H]2O[C@H]2C[C@](C)(N)[C@H](O)[C@H](C)O2)Oc2ccc(cc2Cl)[C@H]1O` [VANCOMYCIN] had a Ka in test [2] of 1.8 ×10⁵ /M. The compound further gave an MIC in the test with Staphylococcus aureus of 1.25 µg/mL (≈ 0.863 µM).

The values are drawn from ChEMBL document CHEMBL2413067, “Investigation into the functional impact of the vancomycin C-ring aryl chloride” (2013).
